# Source: patent EP0234500A1, “Antiasthma inhalation compositions” (RORER PHARMACEUTICAL CORPORATION, priority 1986, dated 1987)
# “And” between values parts separate entries of the source, which are not always exact repeats. Equal entries are not always repeated. Structures can show the parent of a compound that is named as a salt.
# Assays:
# [1] = Solubility of the active compound in ethanol/propellant mixture; assay type: physicochemical
# From the text: Other aspects of the present invention include solubility of the active compound in the pharmaceutically acceptable solvent, ethyl alcohol, the maintainance in solution of the active compound upon the addition of the propellant(s) and the particle size distribution of the aerosol preparation. The compounds of the present invention are soluble in ethyl alcohol.
# [2] = Particle size distribution and MMAD of aerosol formulations; assay type: physicochemical; design: MMAD**: unit: micrometers (µm); conditions: for MMAD**: Mass Median Aerodynamic Diameter; for Part. Size (mg collected) per 20 actuations 4 µ*: Particle Size Limit = 4 µ to 8 µ; for mg at 1-8 µ: per 20 actuations
# From the text: Other essential properties of aerosol formulations are the particle size distribution and the related mass median aerodynamic diameter of the particles. It is generally required that the effective range for inahalation products be approximately in the range of 1 to 8 micrometers (um). The particle size distribution helps, inter alia, to reduce loss on impaction on the tongue and oropharynx of the particles expelled from the pressurized container.
# Male Hartley guinea pigs = experiment: Antigen-induced bronchoconstriction in ovalbumin-immunized anesthetized guinea pigs, aerosol administration; assay type: in vivo; conditions: 1% aerosol formulation, 25 actuations, approximately 5 mg (or 15 mg/kg), 15 minutes before ovalbumin 0.3 mg/kg i.v. challenge, n=7
# Method: Male Hartley guinea pigs (200-250 g) were immunized with ovalbumin, 2.7 mg/kg i.p., followed in 30 minutes by Salmonella typhosa lipopolysaccharide, 20 ug i.p. Thirteen to fifteen days after immunization, each guinea pig was anesthetized with sodium pentobarbital, 50 mg/kg i.p., and a jugular vein and the trachea were cannulated. The animal was mechanically ventilated (80 breaths/min. 2ml/breath). Needle electrodes were attached to the limbs for monitoring ECG and heart rate. Airway pressure was measured with a Validyne pressure transducer (+ 20 cm H20 range) connected to the tracheal cannula. Airway pressure for each breath was recorded on a polygraph, while mean values over 6-second periods were printed on a digital terminal. […] All bronchoconstrictor responses to the second dose of LTD4 and to antigen were quantified as the percent increase in airway pressure over the baseline value. The normalized response of each animal is expressed as the ratio of antigen-induced to LTD4-induced bronchoconstriction. Mean values and standard errors of these ratios in control and drug-treated groups were calculated and compared statistically by Student's t-test. The activity of each drug is expressed as the percent inhibition of the mean control response.
# [3] = Compound of Example 1 1.0, ETOH 5.0, P 114 47, P 12 47, hydrochloride
# [4] = Compound of Example 1 1.0, ETOH 10.0, P 114 25.0, P 12 75.0
# [5] = Compound of Example 1 1.0, ETOH 10.0, P 114 35, P 12 53
# [6] = Compound of Example 1 1.0, ETOH 10.0, P 114 44.5, P 12 44.5
# [7] = Compound of Example 1 1.0, ETOH 10.0, P 114 44.5, P 12 44.5, hydrochloride
# [8] = Compound of Example 1 2.0, ETOH 10.0, P 114 44.00, P 12 44.00
# [9] = Compound of Example 1 2.5, ETOH 10.0, P 114 43.75, P 12 43.75, hydrochloride
# [10] = Compound of Example 1 3.0, ETOH 10.0, P 114 43.5, P 12 43.5
# [11] = Compound of Example 1 3.5, ETOH 10.0, P 114 43.25, P 12 43.25
# [12] = Compound of Example 1 5.0, ETOH 30.0, P 114 32.5, P 12 32.5
# [13] = Compound of Example 1 6.0, ETOH 20.0, P 114 29.6, P 12 44.4
# [14] = Compound of Example 1 9.0, ETOH 30.0, P 114 17, P 12 44
smiles,measurement,setting,value
"CCCCCC(O)c1cccc(OCc2ccc3ccccc3n2)c1 (stereo not drawn) [Compound of Example 1, 2-(3-(l-Hydroxyhexyl)phenoxymethyl)quinoline hydrochloride]",Solubility at 24°C,"[1]; Ethanol (W/W) 5%, Propellants 114/12 (50/50 Mixture) 93.2%",1.8%
same,Solubility at 24°C,"[1]; Ethanol (W/W) 10%, Propellants 114/12 (50/50 Mixture) 86.0%",4.0%
same,Solubility at 24°C,"[1]; Ethanol (W/W) 20%, Propellants 114/12 (50/50 Mixture) 74.0%",6.0%
same,Solubility at 24°C,"[1]; Ethanol (W/W) 30%, Propellants 114/12 (50/50 Mixture) 61.0%",9.0%
same,Part. Size (mg collected) per 20 actuations 1 µ,[2]; [3],0.448 mg and 0.607 mg and 0.667 mg
same,Part. Size (mg collected) per 20 actuations 2 µ,[2]; [3],0.973 mg and 1.529 mg and 1.532 mg
same,Pressure PSI,[2]; [3],58.7 PSI and 60.2 PSI
same,cum % 1-8 µ,[2]; [3],57.74% and 60.73% and 66.20%
same,Part. Size (mg collected) per 20 actuations 1 µ,[2]; [4],0.499 mg
same,Part. Size (mg collected) per 20 actuations 2 µ,[2]; [4],1.167 mg
same,cum % 1-8 µ,[2]; [4],45.36%
same,Part. Size (mg collected) per 20 actuations 1 µ,[2]; [5],0.503 mg
same,Part. Size (mg collected) per 20 actuations 2 µ,[2]; [5],1.201 mg
same,Pressure PSI,[2]; [5],56 PSI
same,cum % 1-8 µ,[2]; [5],55.41%
same,Pressure PSI,[2]; [6],49.3 PSI
same,Part. Size (mg collected) per 20 actuations 1 µ,[2]; [7],0.498 mg and 0.479 mg
same,Part. Size (mg collected) per 20 actuations 2 µ,[2]; [7],1.243 mg and 0.868 mg
same,cum % 1-8 µ,[2]; [7],53.70% and 57.26%
same,Part. Size (mg collected) per 20 actuations 1 µ,[2]; [8],0.661 mg
same,Part. Size (mg collected) per 20 actuations 2 µ,[2]; [8],1.373 mg
same,cum % 1-8 µ,[2]; [8],46.71%
same,Part. Size (mg collected) per 20 actuations 1 µ,[2]; [9],0.514 mg and 0.528 mg and 0.638 mg
same,Part. Size (mg collected) per 20 actuations 2 µ,[2]; [9],1.380 mg and 1.435 mg and 1.106 mg
same,cum % 1-8 µ,[2]; [9],44.86% and 44.36% and 42.87%
same,Part. Size (mg collected) per 20 actuations 1 µ,[2]; [10],0.538 mg
same,Part. Size (mg collected) per 20 actuations 2 µ,[2]; [10],1.478 mg
same,cum % 1-8 µ,[2]; [10],40.15%
same,Part. Size (mg collected) per 20 actuations 1 µ,[2]; [11],0.583 mg
same,Part. Size (mg collected) per 20 actuations 2 µ,[2]; [11],1.236 mg
same,cum % 1-8 µ,[2]; [11],35.00%
same,Part. Size (mg collected) per 20 actuations 1 µ,[2]; [12],0.336 mg
same,Part. Size (mg collected) per 20 actuations 2 µ,[2]; [12],0.852 mg
same,Pressure PSI,[2]; [12],52 PSI
same,cum % 1-8 µ,[2]; [12],32.09%
same,Part. Size (mg collected) per 20 actuations 1 µ,[2]; [13],0.447 mg
same,Part. Size (mg collected) per 20 actuations 2 µ,[2]; [13],0.901 mg
same,Pressure PSI,[2]; [13],52.0 PSI
same,cum % 1-8 µ,[2]; [13],28.77%
same,Part. Size (mg collected) per 20 actuations 1 µ,[2]; [14],0.394 mg
same,Part. Size (mg collected) per 20 actuations 2 µ,[2]; [14],0.818 mg
same,Pressure PSI,[2]; [14],53.7 PSI
same,cum % 1-8 µ,[2]; [14],28.79%
same,MMAD**,[2]; [3],3.0 and 2.8
same,MMAD**,[2]; [4],4.0
same,MMAD**,[2]; [5],3.5
same,MMAD**,[2]; [6],3.0
same,MMAD**,[2]; [8],3.8
same,MMAD**,[2]; [9],3.8 and 4.0
same,MMAD**,[2]; [10],4.0
same,MMAD**,[2]; [11],4.5
same,MMAD**,[2]; [12],6.0
same,MMAD**,[2]; [13],5.75
same,MMAD**,[2]; [14],6.0
same,Part. Size (mg collected) per 20 actuations 4 µ*,[2]; [3],2.091 mg and 2.522 mg and 2.481 mg
same,Part. Size (mg collected) per 20 actuations 4 µ*,[2]; [4],1.611 mg
same,Part. Size (mg collected) per 20 actuations 4 µ*,[2]; [5],2.283 mg
same,Part. Size (mg collected) per 20 actuations 4 µ*,[2]; [7],1.871 mg and 1.715 mg
same,Part. Size (mg collected) per 20 actuations 4 µ*,[2]; [8],2.772 mg
same,Part. Size (mg collected) per 20 actuations 4 µ*,[2]; [9],3.121 mg and 3.103 mg and 2.744 mg
same,Part. Size (mg collected) per 20 actuations 4 µ*,[2]; [10],2.657 mg
same,Part. Size (mg collected) per 20 actuations 4 µ*,[2]; [11],3.546 mg
same,Part. Size (mg collected) per 20 actuations 4 µ*,[2]; [12],2.084 mg
same,Part. Size (mg collected) per 20 actuations 4 µ*,[2]; [13],2.879 mg
same,Part. Size (mg collected) per 20 actuations 4 µ*,[2]; [14],2.381 mg
same,mg at 1-8 µ,[2]; [3],3.512 mg and 4.658 mg and 4.680 mg
same,mg at 1-8 µ,[2]; [4],3.277 mg
same,mg at 1-8 µ,[2]; [5],3.987 mg
same,mg at 1-8 µ,[2]; [7],3.612 mg and 3.062 mg
same,mg at 1-8 µ,[2]; [8],4.806 mg
same,mg at 1-8 µ,[2]; [9],5.015 mg and 5.066 mg and 4.488 mg
same,mg at 1-8 µ,[2]; [10],4.673 mg
same,mg at 1-8 µ,[2]; [11],5.365 mg
same,mg at 1-8 µ,[2]; [12],3.272 mg
same,mg at 1-8 µ,[2]; [13],4.227 mg
same,mg at 1-8 µ,[2]; [14],3.593 mg
same,percent inhibition of the mean control response,Male Hartley guinea pigs,53%
same,"normalized postchallenge increase in PAW (ratio of antigen-induced to LTD4-induced bronchoconstriction), mean response",Male Hartley guinea pigs; mean and standard error,0.60 ± 0.16
